This note sets out measurements from patent publication US12479847B2 (DANA-FARBER CANCER INSTITUTE, INC., priority 2019, dated 2025).

Common to all, as to experiment: KINOMEscan (ScanMAX) kinase profiling
Holding throughout (format): binding

Assay [1] addresses T1, panel of 468 kinases (Homo sapiens, UniProt O75716).
T1 construct: purchased KINOMEscan (ScanMAX) service
Conditions: STK16; 1 μM; read-out: % control.

Assay [2] has as its target T2, panel of 468 kinases (Homo sapiens, UniProt P06239).
T2 construct: purchased KINOMEscan (ScanMAX) service
The settings on record: LCK; 1 μM; read-out: % control.

The target in assay [3] is T3, panel of 468 kinases (Homo sapiens, UniProt Q92630).
T3 construct: purchased KINOMEscan (ScanMAX) service
T3 sequence (Q92630 1-601): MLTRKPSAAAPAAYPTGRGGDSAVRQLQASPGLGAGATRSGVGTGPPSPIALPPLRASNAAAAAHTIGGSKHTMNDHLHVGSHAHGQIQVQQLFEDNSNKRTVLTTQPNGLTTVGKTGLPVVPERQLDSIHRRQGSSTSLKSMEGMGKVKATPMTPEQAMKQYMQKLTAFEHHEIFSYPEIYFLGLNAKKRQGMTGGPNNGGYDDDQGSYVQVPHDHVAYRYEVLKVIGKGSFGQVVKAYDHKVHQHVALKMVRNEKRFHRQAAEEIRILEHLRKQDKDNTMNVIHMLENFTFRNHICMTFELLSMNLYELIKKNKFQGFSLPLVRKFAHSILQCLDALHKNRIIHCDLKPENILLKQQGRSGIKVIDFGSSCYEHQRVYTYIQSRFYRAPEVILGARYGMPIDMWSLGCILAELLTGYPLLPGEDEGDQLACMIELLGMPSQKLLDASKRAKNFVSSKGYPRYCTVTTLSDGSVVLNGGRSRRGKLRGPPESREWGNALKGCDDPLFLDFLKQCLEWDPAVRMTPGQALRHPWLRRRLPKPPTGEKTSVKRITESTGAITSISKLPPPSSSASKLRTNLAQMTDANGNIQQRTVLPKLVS
Conditions: DYRK2; 1 μM; read-out: % control.

Assay [4] concerns the target T4, panel of 468 kinases (Homo sapiens, UniProt Q9BRS2).
T4 construct: purchased KINOMEscan (ScanMAX) service
T4 sequence (Q9BRS2 1-568): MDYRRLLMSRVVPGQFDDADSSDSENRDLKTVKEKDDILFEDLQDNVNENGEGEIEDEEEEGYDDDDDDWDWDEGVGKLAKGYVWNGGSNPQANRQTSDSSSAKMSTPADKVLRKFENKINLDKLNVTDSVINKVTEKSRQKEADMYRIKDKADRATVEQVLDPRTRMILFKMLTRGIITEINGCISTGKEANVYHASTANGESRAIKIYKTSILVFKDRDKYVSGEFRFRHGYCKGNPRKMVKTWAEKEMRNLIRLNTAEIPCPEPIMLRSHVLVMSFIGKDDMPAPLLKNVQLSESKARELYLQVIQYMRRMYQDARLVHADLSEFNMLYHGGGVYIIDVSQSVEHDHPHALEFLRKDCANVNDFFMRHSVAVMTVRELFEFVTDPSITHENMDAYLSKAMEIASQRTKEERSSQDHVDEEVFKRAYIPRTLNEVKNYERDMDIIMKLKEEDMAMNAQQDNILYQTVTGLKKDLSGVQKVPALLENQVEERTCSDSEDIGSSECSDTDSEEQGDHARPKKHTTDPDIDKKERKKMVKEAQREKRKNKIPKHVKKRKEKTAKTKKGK
Conditions: RIOK1; 1 μM; read-out: % control.

In assay [5] the target is T5, panel of 468 kinases (Homo sapiens, UniProt P36888, K663Q).
T5 construct: purchased KINOMEscan (ScanMAX) service
T5 sequence (P36888 27-993 K663Q): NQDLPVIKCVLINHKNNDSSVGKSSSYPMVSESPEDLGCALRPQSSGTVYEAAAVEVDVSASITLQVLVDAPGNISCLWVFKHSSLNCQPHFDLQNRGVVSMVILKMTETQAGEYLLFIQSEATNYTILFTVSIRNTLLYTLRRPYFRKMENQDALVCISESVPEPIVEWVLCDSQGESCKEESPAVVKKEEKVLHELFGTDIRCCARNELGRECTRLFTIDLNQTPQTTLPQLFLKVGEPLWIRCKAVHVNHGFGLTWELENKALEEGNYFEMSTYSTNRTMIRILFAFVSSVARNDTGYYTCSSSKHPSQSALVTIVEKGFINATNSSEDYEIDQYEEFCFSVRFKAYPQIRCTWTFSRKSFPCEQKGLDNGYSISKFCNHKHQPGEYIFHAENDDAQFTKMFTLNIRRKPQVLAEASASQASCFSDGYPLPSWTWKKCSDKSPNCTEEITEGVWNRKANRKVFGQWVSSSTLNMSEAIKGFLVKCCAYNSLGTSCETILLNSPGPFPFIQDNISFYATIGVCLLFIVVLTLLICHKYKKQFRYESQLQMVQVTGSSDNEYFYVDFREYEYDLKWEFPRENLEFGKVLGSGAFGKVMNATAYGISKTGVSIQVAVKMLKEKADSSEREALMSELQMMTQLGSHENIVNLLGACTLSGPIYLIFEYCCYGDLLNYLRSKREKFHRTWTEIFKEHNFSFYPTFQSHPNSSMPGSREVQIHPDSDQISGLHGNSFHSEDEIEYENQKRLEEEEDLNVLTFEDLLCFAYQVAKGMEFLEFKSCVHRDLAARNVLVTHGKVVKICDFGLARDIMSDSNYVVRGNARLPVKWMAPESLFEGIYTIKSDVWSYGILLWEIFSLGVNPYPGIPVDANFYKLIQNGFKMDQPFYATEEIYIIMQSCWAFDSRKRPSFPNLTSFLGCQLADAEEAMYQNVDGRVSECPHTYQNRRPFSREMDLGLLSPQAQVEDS
The settings on record: FLT3(K663Q); 1 μM; read-out: % control.

T2 sequence (P06239 whole entry): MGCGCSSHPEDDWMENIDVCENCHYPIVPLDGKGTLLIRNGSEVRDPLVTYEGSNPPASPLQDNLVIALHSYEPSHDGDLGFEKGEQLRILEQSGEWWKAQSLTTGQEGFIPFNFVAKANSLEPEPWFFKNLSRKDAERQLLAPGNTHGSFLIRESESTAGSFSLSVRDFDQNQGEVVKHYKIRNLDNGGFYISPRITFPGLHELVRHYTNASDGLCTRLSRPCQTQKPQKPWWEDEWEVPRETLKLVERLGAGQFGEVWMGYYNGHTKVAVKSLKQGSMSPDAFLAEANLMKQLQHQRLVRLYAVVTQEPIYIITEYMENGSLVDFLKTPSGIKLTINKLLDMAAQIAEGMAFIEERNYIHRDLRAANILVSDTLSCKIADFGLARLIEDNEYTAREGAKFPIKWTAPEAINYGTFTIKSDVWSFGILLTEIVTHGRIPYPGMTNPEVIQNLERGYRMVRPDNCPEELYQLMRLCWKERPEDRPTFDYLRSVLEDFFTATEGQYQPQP
T1 sequence (O75716 whole entry): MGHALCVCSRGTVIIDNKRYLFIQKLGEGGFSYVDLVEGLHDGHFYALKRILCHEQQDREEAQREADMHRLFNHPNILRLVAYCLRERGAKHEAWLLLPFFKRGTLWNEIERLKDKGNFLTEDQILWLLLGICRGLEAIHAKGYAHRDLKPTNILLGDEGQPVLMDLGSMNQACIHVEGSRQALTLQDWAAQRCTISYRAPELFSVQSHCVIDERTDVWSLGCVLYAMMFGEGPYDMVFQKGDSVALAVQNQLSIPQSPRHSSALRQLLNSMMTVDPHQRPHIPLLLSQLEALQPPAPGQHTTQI

`CNc1nc(Nc2ccc(C(=O)N3CCC(N4CCOCC4)CC3)c3c2OCO3)nc2[nH]cc(Cl)c12` [Compound 75, (7-((5-chloro-4-(methylamino)-7H-pyrrolo[2,3-d]pyrimidin-2-yl)amino)benzo[d][1,3]dioxol-4-yl)(4-morpholinopiperidin-1-yl)methanone]: the remaining binding at 1 µM amounted to 71% at panel of 468 kinases [1]; 100% at panel of 468 kinases [2]; 14% on panel of 468 kinases [3]; 48% on panel of 468 kinases [4]; 72% on panel of 468 kinases [5].
The like results for `CNc1nc(Nc2ccc(P3(=O)CCN(C4CCOCC4)CC3)cc2OC)nc2[nH]cc(Cl)c12` [Compound 77, 4-(4-((5-chloro-4-(methylamino)-7H-pyrrolo[2,3-d]pyrimidin-2-yl)amino)-3-methoxyphenyl)-1-(tetrahydro-2H-pyran-4-yl)-1,4-azaphosphinane 4-oxide] were, in that order, 93%, 100%, 47%, 98% and 99%.
The corresponding values for `CNc1nc(Nc2ccc(S(=O)(=O)N3CCC(N4CCOCC4)CC3)cc2OC)nc2[nH]cc(Cl)c12` [Compound 12, 5-chloro-N2-(2-methoxy-4-((4-morpholinopiperidin-1-yl)sulfonyl)phenyl)-N4-methyl-7H-pyrrolo[2,3-d]pyrimidine-2,4-diamine] are 100%, 91%, 13%, 100% and 100%.
